In patent publication US20260240940A1, “REGULATING DISEASE OR DISORDER CHARACTERIZED BY ESOPHAGEAL EPITHELIAL PROLIFERATION THROUGH SECRETED FRIZZLED-RELATED PROTEIN 1 (SFRP1)” (The Regents of the University of Michigan, priority 2023, published 2026):

Legend:
IL4Rα chain = molecular target: T1, IL4Rα chain (Homo sapiens, UniProt P24394); conditions: adults with active EoE, weekly subcutaneous injections; cited from earlier work
T1 construct: adults with active EoE who received weekly subcutaneous injections of dupilumab; host or cells: human patients (in vivo)

EPC2-ALI cells [1] = experiment: Quantification of Ki67-positive EPC2-ALI cells; format: cell-based, human; conditions: for Ki67+ EPC2-ALI cells under IL-13-stimulation: compared to IL-13 alone; for Ki67+ EPC2-ALI cells, treatment alone: without IL-13, compared to steady-state (Vehicle)
Experimental: (§1) EPC2-ALI culture—hTERT immortalized human esophageal epithelial keratinocytes (hTERT-EPC2) were cultured under air-liquid-interface conditions as described 9, 41. In brief, EPC2-hTERT cells were seeded onto permeable (0.4 μm) transwell support (Corning Incorporated, Corning, NY, USA) and grown to confluence while fully submerged in low-calcium ([Ca2+]=0.09 mM) keratinocyte serum-free media (K-SFM) (Life Technologies; Carlsbad, CA). Epithelial differentiation was induced by culturing submerged cell monolayers in high-calcium K-SFM ([Ca2+]=1.8 mM) for 4 days (day 3 to 7). Cells were then exposed for 5 days (day 7 to 12) at ALI by removing cell media from the top chamber, to induce stratification.
Quantification of Ki67-positive EPC2-ALI cells—EPC2-ALI cells were cultured in the presence or absence of their respective stimulations for 48 hours. For immunofluorescence (IF) staining, formalin- or paraformaldehyde-fixed, paraffin-embedded transwell sections were sectioned, mounted on slides, and deparaffinized by using standard histologic procedures. Slides were then permeabilized in Tris-EDTA (1 mmol/L, pH 9.0) with 0.1% Tween-20, and antigen exposure was performed at 125° C. for 30 seconds in a decloaking chamber by using a pressure cooker. Slides were then blocked by 10% normal donkey serum for 1 hour, followed by overnight incubation of primary antibodies diluted in 10% normal donkey serum at a final concentration of 1 μg/mL: anti-Ki67 (1:1000; clone: SolA15; Invitrogen), slides were then washed and incubated with secondary antibody at RT for 1 hour. Slides were mounted with 4′-6-diamidino-2-phenylindole dihydrochloride Fluoromount-G (SouthernBiotech, Birmingham, Ala) mounting solution. Fluorescent imaging was performed with the Zeiss Apotome fluorescent microscope (Carl Zeiss Meditec, Dublin, Calif) using Nikon Elements software. Ki67+ cells were quantified as the number of Ki67+-labeled cells per total linear length of filter-attached EPC2-ALI cells using FIJI ImageJ. Three filters per condition from 3 individual experiments were quantitated.

STAT3 = molecular target: T2, STAT3 (Homo sapiens, UniProt P40763); experiment: Western blot of EPC2-ALI for total and phosphorylated STAT3; format: cell-based; conditions: SD-36 10 uM
T2 construct: endogenous in cells; host or cells: hTERT-EPC2 human esophageal epithelial keratinocytes at air-liquid interface (EPC2-ALI)
T2 sequence (P40763 whole entry): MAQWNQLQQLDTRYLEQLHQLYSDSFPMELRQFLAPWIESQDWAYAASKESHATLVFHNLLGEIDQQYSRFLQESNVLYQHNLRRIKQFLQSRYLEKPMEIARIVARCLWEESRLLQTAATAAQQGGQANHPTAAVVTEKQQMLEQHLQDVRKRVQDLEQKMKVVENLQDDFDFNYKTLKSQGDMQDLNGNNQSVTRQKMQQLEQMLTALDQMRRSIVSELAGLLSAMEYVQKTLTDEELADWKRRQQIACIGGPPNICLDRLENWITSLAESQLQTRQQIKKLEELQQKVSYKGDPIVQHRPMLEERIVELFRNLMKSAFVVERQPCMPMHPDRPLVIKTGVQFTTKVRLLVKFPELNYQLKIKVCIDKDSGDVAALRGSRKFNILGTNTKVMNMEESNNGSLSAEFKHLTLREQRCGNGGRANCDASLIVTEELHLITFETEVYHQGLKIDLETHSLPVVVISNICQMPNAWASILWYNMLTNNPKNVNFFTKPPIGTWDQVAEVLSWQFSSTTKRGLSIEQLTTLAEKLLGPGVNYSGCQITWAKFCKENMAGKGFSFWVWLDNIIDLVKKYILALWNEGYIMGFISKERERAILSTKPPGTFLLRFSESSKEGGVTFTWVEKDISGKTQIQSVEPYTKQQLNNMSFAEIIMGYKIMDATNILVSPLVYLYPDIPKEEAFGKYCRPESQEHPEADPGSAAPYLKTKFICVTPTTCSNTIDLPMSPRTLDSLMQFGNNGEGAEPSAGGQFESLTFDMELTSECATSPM
Experimental: as §1
Western blot—EPC2 ALI cells and primary esophageal cells were lysed following stimulation, using a protein extraction reagent (10% Glycerol, 20 mM Tris HCl pH7, 137 mM NaCl, 2 mM EDTA, 1% NP-40 in H2O) with Halt™ protease inhibitor cocktail (Thermo Fisher Scientific Incorporated; Rockford, IL, USA) and PhosSTOP phosphatase inhibitor cocktail tablet (Roche Diagnostics; Mannheim, Germany). […] of protein extract were separated on a 4%-12% Bis-Tris gel and transferred to a nitrocellulose membrane (Life Technologies; Carlsbad, CA). […]

EPC2-ALI cells [2] = experiment: qPCR mRNA expression of EoE proliferation and inflammatory genes in EPC2-ALI; format: cell-based, human; conditions: in the presence of SD-36
Experimental: as §1
Quantitative PCR—RNA was extracted from EPC2-ALI cells by using the Quick-RNA Microprep Kit (Zymo Research Corporation) according to the manufacturer's protocol. Purified RNA (500 ng) was DNase treated and reverse transcribed to cDNA by using Superscript II RNase H Reverse Transcriptase (Thermo Fisher Scientific, Rockford, Ill), according to the manufacturer's instructions. cDNA for ANO1, CAPN14, CCL26, TP63, SFRP1, STAT3 and hypoxanthine phosphoribosyltransferase (HPRT) was quantified by using real-time PCR with the IQ SYBR Green Supermix (Bio-Rad Laboratories, Hercules, Calif) with the CFX96 Touch Real-Time PCR Detection System (Bio-Rad Laboratories). Quantitative PCR (qPCR) analyses were performed by using Bio-Rad CFX Manager Software (version 3.1; Bio-Rad Laboratories), and the results were normalized with HPRT amplified from the same cDNA mix and expressed as fold induction (2^-(ΔΔCT). Primers used for amplification were: […]

IL-13 = molecular target: T3, IL-13 (Homo sapiens, UniProt P35225); conditions: cited from earlier work
T3 construct: Treatment of adult EoE patients with RPC4046, a recombinant humanized monoclonal antibody against IL-13 improves histologic and endoscopic outcomes; host or cells: human patients (in vivo)
T3 sequence (P35225 25-146): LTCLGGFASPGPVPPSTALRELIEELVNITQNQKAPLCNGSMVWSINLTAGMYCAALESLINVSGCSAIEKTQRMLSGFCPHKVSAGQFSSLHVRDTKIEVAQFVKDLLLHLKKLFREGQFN

## dupilumab: fully human IgG4 monoclonal antibody that binds the IL4Rα chain and blocks both IL-4 and IL-13 signaling
IL4Rα chain
  esophageal distensibility: increased
  histologic and endoscopic severity scores: decreased
  peak esophageal eosinophil count: reduced

## NC(=O)CC[C@H](NC(=O)[C@@H]1CC[C@@H]2CCN(C(=O)CCCCCC#Cc3cccc4c3CN(C3CCC(=O)NC3=O)C4=O)C[C@H](NC(=O)c3cc4cc(C(F)(F)P(=O)(O)O)ccc4[nH]3)C(=O)N21)C(=O)NC(c1ccccc1)c1ccccc1 (stereo partly drawn) [SD-36]
EPC2-ALI cells [1]; SD-36 10 uM, IL-13 100 ng/mL, 48 hours
  IL-13-induced increase in EPC2-ALI Ki-67+ cells: attenuated
STAT3; IL-13 100 ng/mL
  IL-13 induced phosphorylation of STAT3 Y705 and Y727 residues: total loss
STAT3; at steady state and following IL-13-stimulation (100 ng/mL)
  degradation of STAT3 (total STAT3 protein): led to degradation of STAT3
EPC2-ALI cells [2]
  IL-13-induced mRNA expression of ANO1: abolished
  IL-13-induced mRNA expression of TP63: abolished
  IL-13 induction of canonical EoE inflammatory genes (CCL26, SLC9A3, CAPN14) mRNA: not significantly inhibited

## O=S(=O)(NC1CCNCC1)c1cc(S(=O)(=O)c2ccccc2)ccc1C(F)(F)F [SFRP1inh]
EPC2-ALI cells [1]
  Ki67+ EPC2-ALI cells under IL-13-stimulation: increase
  Ki67+ EPC2-ALI cells, treatment alone: increase

B1: RPC4046: recombinant humanized monoclonal antibody against IL-13 (antibody, chains of the INN, looked up, V domains shown)
VH: EVTLRESGPGLVKPTQTLTLTCTLYGFSLSTSDMGVDWIRQPPGKGLEWLAHIWWDDVKRYNPALKSRLTISKDTSKNQVVLKLTSVDPVDTATYYCARTVSSGYIYYAMDYWGQGTLVTVSS
VL: DIQMTQSPSSLSASVGDRVTISCRASQDIRNYLNWYQQKPGKAPKLLIFYTSKLHSGVPSRFSGSGSGTDYTLTISSLQPEDIATYYCQQGNTLPLTFGGGTKVEIK
IL-13; 52-week open-label LTE study, 360 mg/week
  endoscopic, histologic and clinical improvement in long-term extension: sustained endoscopic, histologic and clinical improvement
IL-13; adult EoE patients
  histologic and endoscopic outcomes: improves

B2: rSFRP1: recombinant secreted frizzled-related protein 1, used as pharmacologic agonist (protein, UniProt Q8N474 32-314, looked up)
Secreted frizzled-related …: SEYDYVSFQSDIGPYQSGRFYTKPPQCVDIPADLRLCHNVGYKKMVLPNLLEHETMAEVKQQASSWVPLLNKNCHAGTQVFLCSLFAPVCLDRPIYPCRWLCEAVRDSCEPVMQFFGFYWPEMLKCDKFPEGDVCIAMTPPNATEASKPQGTTVCPPCDNELKSEAIIEHLCASEFALRMKIKEVKKENGDKKIVPKKKKPLKLGPIKKKDLKKLVLYLKNGADCPCHQLDNLSHHFLIMGRKVKSQYLLTAIHKWDKKNKEFKNFMKKMKNHECPTFQSVFK
EPC2-ALI cells [1]
  Ki67+ EPC2-ALI cells under IL-13-stimulation: decrease
  Ki67+ EPC2-ALI cells, treatment alone: sufficient to inhibit esophageal epithelial proliferation
